Source: publication PMC8305768, “Design, Synthesis and Antiparasitic Evaluation of Click Phospholipids” (Molecules, 2021)
Counter-ions that a name gives are not always drawn.

Columns and labels:
hERG = biological target: T1, hERG (Homo sapiens, UniProt Q12809); experiment: hERG cardiotoxicity assay (Predictor hERG fluorescence polarization); format: binding; conditions: compounds 10 μM; miltefosine 10 μM or 1 μM
T1 construct: purchased Thermo Fischer Scientific
Description: hERG cardiotoxicity assay: The Predictor® hERG fluorescence polarization assay (Thermo Fischer Scientific, Waltham, MA, USA) was used to test compounds for potential cardiotoxicity. To each well of the assay plate, 100 nL of the test/control compound was added followed by addition of 5 μL homogenized membrane solution (undiluted) and 5 μL of tracer (1 nM final concentration in the assay). The plates were incubated for 2 h at 25 °C in a humidity controlled incubator, and the fluorescence polarization was measured using an EnVision Multilabel 2103 Reader (PerkinElmer, Waltham, MA. USA). The NCs (0% inhibition) and positive controls with E-4031, a blocker of hERG-type potassium channels (yielding 100% inhibition), were used to normalize the raw data.
Data analysis: The screening data were obtained in triplicate and analysed using ActivityBase (IDBS, Guildford, UK), and outlier elimination in the control wells was performed using the 3-sigma method. Unless stated, dose–response experiments were performed in the 11-point format with the IC50 value, Hill slope, minimum signal and maximum signal for each dose–response curve obtained using a four-parameter logistic fit in the XE module of ActivityBase (IDBS).

WI-38 cells = experiment: Cytotoxicity assay WI-38 (CellTiter-Glo); format: cell-based; conditions: compounds 10 μM; miltefosine 10 μM or 1 μM
Source text: (§1) Early ADMET profiling: The early ADMET profiling of the new derivatives involved a group of assays widely used in drug development as part of the preclinical in vitro toxicity studies. In particular our panel included hERG inhibition, five cytochromes P450 (CYP1A2, CYP2C9, CYP2C19, CYP2D6 and CYP3A4), two cell-lines (A549, epithelial human lung adenocarcinoma, WI38 and foetal lung fibroblasts), Aurora B kinase and mitochondrial toxicity, in addition to the parasite relevant toxicity against THP1 macrophages. The compounds were tested at 10 μΜ, whilst the miltefosine control was tested at 10 μΜ or 1 μM. The toxicity of the new click phospholipids is depicted in Figure 3 in a traffic light format (from red through yellow to green for decreasing ADMET liabilities).
(§2) Cytotoxicity assay: A549 cells and WI-38 cells were grown on surface-modified T175 cell culture flasks in Dulbecco’s modified Eagle medium with 10% foetal calf serum (FCS), streptomycin (100 μg/mL) and 100 U/mL penicillin G. At about 80% confluency, cells were washed, trypsinized, resuspended and counted in RPMI-1640 medium before seeding (in triplicate) into white 384-well microtiter plates (20 μL) at 500 cells/well and incubated at 37 °C in the presence of 5% CO2 for 24 h. A total of 20 μL/well of CellTiter-Glo (CTG) reagent (Promega Corp., Madison, WI, USA) was added to each well, and plates were read using an EnVision Multilabel 2103 Reader after a 10-min incubation in the dark. Dose–response assays for compounds made use of 11-point curves. Each test compound (200 nL of 10 mM top concentration in 100% v/v DMSO) was added to cells seeded in polystyrene 384-well cell culture microtiter plates using the Echo 550 Liquid Handler and read after 24 h of incubation at 37 °C in the presence of 5% CO2 using CTG as described above. The compounds/positive control (paclitaxel with final concentration of 10 μM and 1% v/v DMSO) and no compound (final 1% v/v DMSO) were added into the 384-well plates (200 nL/well; 1% v/v DMSO) using the Echo 550 Liquid Handler. The raw luminescence signal of each sample was converted into the percentage of cell growth.

Aurora B kinase = biological target: T2, Aurora B kinase (Homo sapiens, UniProt Q96GD4); experiment: Aurora B kinase assay (ADP-Glo); format: biochemical; conditions: compounds 10 μM; miltefosine 10 μM or 1 μM; read-out: % inhibition ± SD at 10 μΜ Aurora B
T2 construct: purchased Promega Corp
Description: Aurora B kinase assay: Inhibition of Aurora B kinase was determined using the ADP-Glo Kinase Enzyme System (Promega Corp., Madison, WI, USA). The positive control was SU6656 at a final concentration of 1 μM, with the NC being DMSO at the same concentration (v/v). An enzyme master mix containing 1 × buffer, 50 μM DTT and 17.5 ng/μL ([…]) Aurora B (all reagents provided in the kit) was prepared. A substrate master mix containing 1 × buffer, 36 μM adenosine triphosphate (ATP) and 7.5 ng/μL (15 ng/well) myelin basic protein (MBP) as a substrate (buffer and MBP were provided in the Aurora B Kinase Enzyme System; ultrapure ATP was provided in the ADP-Glo Kinase Assay System) was prepared. Two microliters of the enzyme master mix and 2 μL of the substrate master mix were added to each well of a 384-well low-volume plate. The plate was sealed using Thermowell sealing tape (Corning Inc., Corning, NY, USA) and incubated for 45 min at rt. The enzymatic reaction was stopped by adding 4 μL of ADP-Glo reagent (provided in the ADP-Glo Kinase Assay System) and the plate sealed using Thermowell sealing tape and incubated for 40 min at rt. Following this, 8 μL of detection reagent was added to each well, and the plate was sealed again and incubated for 45 min at rt, with the luminescence measured using the EnVision Multilabel 2103 Reader (PerkinElmer, Waltham, MA. USA). DMSO concentration was tolerated up to 2% v/v final.

[1] = Early ADMET profiling panel, overall; conditions: 10 μM; except for toxicity against THP1 macrophages
Source text: as §1, §2
Cytochrome (CYP) P450 inhibition assay: These assays made use of microsomal preparations of CYP450 (1A2, 2C9, 2C19, 2D6 and 3A4) from baculovirus-infected insect cells (Corning Inc., Corning, NY, USA) and cytochrome c reductase (and cytochrome b5 for CYP450 3A4). For detection of CYP450 activity, the luminescence-based P450-Glo (Promega Corp., Madison, WI, USA) assay system was used that contained a luminogenic CYP450 substrate, lyophilized luciferin detection reagent and reconstitution buffer. The substrates were luciferin derivatives of CYP450-specific substrates that produce (4S)-4,5-dihydro-2-(6-hydroxybenzothiazolyl)-4-thiazolecarboxylic acid (D-luciferin) after cleavage by CYP450 (CYP450 3A4, luciferin-IPA; CYP450 2C19, luciferin-H EGE; CYP450 2C9, luciferin-H; CYP450 2D6, luciferin-ME EGE; CYP450 1A2, luciferin-1A2). CYP450 reactions were initiated by addition of the NADPH regeneration system to the enzyme–substrate mixture with the luciferin detection reagent stopping the reaction and the D-luciferin being converted to oxyluciferin under the production of light being proportional to the CYP450 activity. The CYP450 assays were performed using the Tecan Fluent liquid-handling automation platform (Tecan Group Ltd., Mannedorf, Switzerland) in the 384-well assay format. Compounds were added into an empty 384-well plate (100 nL/well in 1% v/v DMSO) using the Echo 550 Liquid Handler followed by the addition of 5 μL/well of the CYP450/substrate mixture and incubation for 30 min at 37 °C, after which the reaction was initiated by the addition of the 5 μL/well NADPH regeneration system. […]

T1 sequence (Q12809 whole entry): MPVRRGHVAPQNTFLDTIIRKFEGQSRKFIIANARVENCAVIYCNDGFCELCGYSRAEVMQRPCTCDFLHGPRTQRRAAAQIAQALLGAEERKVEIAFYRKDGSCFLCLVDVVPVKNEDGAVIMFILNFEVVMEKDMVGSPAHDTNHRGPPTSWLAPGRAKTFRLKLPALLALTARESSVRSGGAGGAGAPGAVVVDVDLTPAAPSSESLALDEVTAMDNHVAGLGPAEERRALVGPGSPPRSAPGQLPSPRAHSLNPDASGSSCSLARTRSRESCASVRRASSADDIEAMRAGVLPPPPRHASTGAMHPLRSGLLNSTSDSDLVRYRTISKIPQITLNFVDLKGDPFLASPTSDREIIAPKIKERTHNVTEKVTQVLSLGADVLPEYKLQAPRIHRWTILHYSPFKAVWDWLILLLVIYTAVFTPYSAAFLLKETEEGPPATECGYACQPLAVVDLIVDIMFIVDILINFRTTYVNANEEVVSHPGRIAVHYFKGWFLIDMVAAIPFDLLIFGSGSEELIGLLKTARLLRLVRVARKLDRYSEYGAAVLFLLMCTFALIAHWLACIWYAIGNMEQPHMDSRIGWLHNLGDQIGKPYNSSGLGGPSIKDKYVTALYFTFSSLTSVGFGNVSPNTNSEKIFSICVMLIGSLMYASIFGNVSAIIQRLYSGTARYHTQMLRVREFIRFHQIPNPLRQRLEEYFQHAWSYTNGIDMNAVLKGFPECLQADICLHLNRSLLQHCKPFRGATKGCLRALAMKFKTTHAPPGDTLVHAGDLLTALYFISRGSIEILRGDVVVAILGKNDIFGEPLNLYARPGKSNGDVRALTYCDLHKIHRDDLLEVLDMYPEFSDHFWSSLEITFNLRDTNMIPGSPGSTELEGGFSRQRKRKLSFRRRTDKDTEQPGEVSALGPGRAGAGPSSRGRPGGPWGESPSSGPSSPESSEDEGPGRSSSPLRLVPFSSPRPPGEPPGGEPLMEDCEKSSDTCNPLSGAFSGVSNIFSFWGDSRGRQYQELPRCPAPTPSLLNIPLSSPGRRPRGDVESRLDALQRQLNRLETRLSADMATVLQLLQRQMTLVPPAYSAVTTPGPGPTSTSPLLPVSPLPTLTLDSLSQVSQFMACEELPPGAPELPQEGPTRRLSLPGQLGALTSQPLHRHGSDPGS
T2 sequence (Q96GD4 whole entry): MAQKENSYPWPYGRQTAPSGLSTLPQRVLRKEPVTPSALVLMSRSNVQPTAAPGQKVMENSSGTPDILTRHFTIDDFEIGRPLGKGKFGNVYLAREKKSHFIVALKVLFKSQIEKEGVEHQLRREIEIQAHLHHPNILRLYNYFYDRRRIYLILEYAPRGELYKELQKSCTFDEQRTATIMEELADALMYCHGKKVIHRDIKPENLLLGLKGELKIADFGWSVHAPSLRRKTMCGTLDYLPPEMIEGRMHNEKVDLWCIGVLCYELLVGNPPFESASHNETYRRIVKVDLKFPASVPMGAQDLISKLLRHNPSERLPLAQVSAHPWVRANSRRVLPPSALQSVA

Row | Structure (SMILES) | % inhibition ± SD at 10 μΜ hERG (hERG) | % cell growth ± SD at 10 μΜ W1-38 (WI-38 cells) [%] | inhibition at 10 µM (Aurora B kinase) [%] | ADMET liabilities (overall panel) [1]
1 | C[N+](C)(C)CCOP(=O)([O-])OCCCCCCCCCCCn1cc(CC2CCCC2)nn1 [Compound 28, 11-(4-(cyclopentylmethyl)-1H-1,2,3-triazol-1-yl)undecyl (2-(trimethylammo nio)ethyl) phosphate inner salt] | –3.64% | 114.04 | -11.7 | no liabilities
2 | CCCCCCCCCCCc1nnc(CCCCCCCCCCOP(=O)([O-])OCC[N+](C)(C)C)o1 [Compound 66, 2-(trimethylammonio)ethyl (10-(5-undecyl-1,3,4-oxadiazol-2-yl)decyl) phosphate inner salt] | 22.98% |  |  | 
3 | C[N+](C)(C)CCOP(=O)([O-])OCCCCCn1cc(CCCCCCCCN)nn1 [Compound 35, 5-(4-(8-aminooctyl)-1H-1,2,3-triazol-1-yl)pentyl (2-(trimethylammonio)ethyl) phosphate inner salt] | 0.10% | 119.10 |  | no liabilities
4 | CCCCCCCCCCCCCCCCOP(=O)([O-])OCC[N+](C)(C)C [Miltefosine, hexadecylphosphocholine, reference compound] | –16.92% | 113.50 | -12.5 | 
5 | CCCCCc1cn(CCCCCCCCCCCOP(=O)([O-])OCC[N+](C)(C)C)nn1 [Compound 25, 11-(4-pentyl-1H-1,2,3-triazol-1-yl)undecyl (2-(trimethylammonio)ethyl) phosphate inner salt] | –7.70% | 93.46 | -10.3 | no liabilities
6 | C[N+](C)(C)CCOP(=O)([O-])OCCCCCCCCCCCn1cc(CC2CCCCC2)nn1 [Compound 29, 11-(4-(cyclohexylmethyl)-1H-1,2,3-triazol-1-yl)undecyl (2-(trimethylammonio)ethyl) phosphate inner salt] | –4.90% | 92.93 | -6.17 | no liabilities
7 | CCCCCCCc1nnc(CCCCCCCCCCOP(=O)([O-])OCC[N+](C)(C)C)o1 [Compound 65, 10-(5-heptyl-1,3,4-oxadiazol-2-yl)decyl (2-(trimethylammonio)ethyl) phosphate inner salt] | 8.64% | 77.74 |  | no liabilities
8 | CCCCCCCCc1noc(CCCCCOP(=O)([O-])OCC[N+](C)(C)C)n1 [Compound 53, 5-(3-octyl-1,2,4-oxadiazol-5-yl)pentyl (2-(trimethylammonio)ethyl) phosphate inner salt] | 8.95% | 83.83 |  | no liabilities
9 | CCCCCCCCc1noc(CCCCCCCCCCOP(=O)([O-])OCC[N+](C)(C)C)n1 [Compound 54, 10-(3-octyl-1,2,4-oxadiazol-5-yl)decyl (2-(trimethylammonio)ethyl) phosphate inner salt] | 17.93% |  |  | 
10 | C[N+](C)(C)CCCOP(=O)([O-])OCCCCCCCCCCCn1cc(CC2CCCCC2)nn1 [Compound 33, 11-(4-(cyclohexylmethyl)-1H-1,2,3-triazol-1-yl)undecyl (3-(trimethylammonio)propyl) phosphate inner salt] | 16.60 ± 2.64% | 136.32 |  | no liabilities
11 | C[N+](C)(C)CCOP(=O)([O-])OCCCCCCCCCCCn1cc(CCCCCCCCC(=O)O)nn1 [Compound 34, 11-(4-(8-carboxyoctyl)-1H-1,2,3-triazol-1-yl)undecyl (2-(trimethylammonio)ethyl) phosphate inner salt] |  |  |  | no liabilities
12 | C[N+](C)(C)CCOP(=O)([O-])OCCCCCn1cc(CCCCCCCCNC(=O)OCc2ccccc2)nn1 [Compound 31, 5-(4-(8-(((benzyloxy)carbonyl)amino)octyl)-1H-1,2,3-triazol-1-yl)pentyl (2-(trimethylammonio)ethyl) phosphate inner salt] | –6.43% | 123.63 |  | no liabilities
